Earlier results in patent publication US20220401207A1, “DEVICES, SYSTEMS, AND METHODS FOR TREATMENT OF DUCT OCCLUSION” (Purdue Research Foundation, priority 2021, published 2022).

Experiments:
cancerous mass = details: drug-eluting stent, drug comprises gemcitabine
[1] = system: bacteria isolated from bile; details: number of bile cultures, N-acetyl-cysteine n = 12, co-trimoxazole n = 10
gall bladder = details: opossums, CCK infused into the body

| Molecule | Bile samples cultured with Clostridium species [1] | Bile samples cultured with Enterobacter species [1] | Bile samples cultured with Enterococcus species [1] | Bile samples cultured with K. oxytoca [1] | Bile samples cultured with K. pneumonia [1] | Bile samples cultured with Klebsiella species [1] | further results |
| --- | --- | --- | --- | --- | --- | --- | --- |
| Nc1ccn([C@@H]2O[C@H](CO)[C@@H](O)C2(F)F)c(=O)n1 [gemcitabine] | – | – | – | – | – | – | Life span of subjects (cancerous mass): increased life spans; Tumor size (cancerous mass): decreased tumor size |
| CC(=O)N[C@@H](CS)C(=O)O [N-acetyl-cysteine] | 5 | 6 | 10 | 5 | 3 | 8 | Bile samples cultured with Citrobacter freundii [1]: 1; Bile samples cultured with Proteus species [1]: 1; Bile samples cultured with Escherichia coli ([1]; **p < 0.05): 6; Bile samples cultured with Streptococcus species ([1]; **p < 0.05): 4 |
| cholecystokinin [CCK] | – | – | – | – | – | – | Compliance (and thus the pressure) of the gall bladder (gall bladder): drops |
| Co-trimoxazole | 2 | 2 | 6 | 1 | 4 | 5 | Bile samples cultured with Bacteroides fragilis [1]: 1; Bile samples cultured with Candida species [1]: 2; Bile samples cultured with Pseudomonas aeruginosa [1]: 1; Bile samples cultured with Staphylococcus epidermidis [1]: 1 |
